Target: T1, His-hMAGL (recombinant polyhistidine tagged human MAGL protein) (Homo sapiens, UniProt Q99685)
T1 construct: made in house; host or cells: E. coli BL21(DE3)
T1 sequence (Q99685 1-303): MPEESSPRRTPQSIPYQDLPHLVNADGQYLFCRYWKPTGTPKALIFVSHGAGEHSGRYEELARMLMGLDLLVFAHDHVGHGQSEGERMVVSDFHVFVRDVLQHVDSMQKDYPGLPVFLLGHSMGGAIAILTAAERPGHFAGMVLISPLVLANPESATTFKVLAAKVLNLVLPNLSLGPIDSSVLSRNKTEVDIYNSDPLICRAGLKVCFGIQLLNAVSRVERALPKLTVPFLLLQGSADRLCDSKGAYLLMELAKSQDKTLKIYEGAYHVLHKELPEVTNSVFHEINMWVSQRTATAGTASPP
Assay: Measurement of MAGL inhibitory activity (arachidonic acid production from 2-arachidonylglycerol, RapidFire-mass spectrometry)
Type: biochemical
Conditions: MAGL inhibitory rate, test compound 10 μM, 60 min preincubation, 2-arachidonylglycerol substrate
How it was run: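 Arachidonic acid formed was quantified by online solid-phase extraction and triple-quadrupole MS in negative SRM mode against a d8 internal standard. Reaction: recombinant His-hMAGL (7.5 ng/mL, pH 7.5 Tris buffer with Triton X-100 and BSA) plus 2-AG (5 μL of 150 μM stock) for 10 min at room temperature, quenched with 2% formic acid. Percent inhibition corrected for enzyme-free background.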

| Structure (SMILES) | inhibition at 10 µM [%] | % inhibition (10 μM) (10 µM) [%] |
| --- | --- | --- |
| O=C1CCC2(CN(C(=O)c3sc4cc(-c5cccc(OC(F)(F)F)c5)ccc4c3Cl)C2)N1 [Example 201, 2-((3-chloro-6-(3-(trifluoromethoxy)phenyl)-1-benzothiophen-2-yl)carbonyl)-2,5-diazaspiro[3.4]octan-6-one] | 98 |  |
| CC1(c2cccc(-c3ccc(C(=O)N4CC5(COC(=O)N5)C4)cc3F)c2)CC1 [Example 274, 2-((2-fluoro-3′-(1-methylcyclopropyl)biphenyl-4-yl)carbonyl)-7-oxa-2,5-diazaspiro[3.4]octan-6-one] | 101 |  |
| O=C1CCC2(CN(C(=O)c3ccc(-c4cc(OC(F)(F)F)ccc4F)cc3)C2)N1 [Example 61, 2-((2′-fluoro-5′-(trifluoromethoxy)biphenyl-4-yl)carbonyl)-2,5-diazaspiro[3.4]octan-6-one] | 97 |  |
| O=C1CCC2(CN(C(=O)c3sc4cc(-c5cnc(C(F)(F)F)nc5)ccc4c3Cl)C2)N1 [Example 231, 2-((3-chloro-6-(2-(trifluoromethyl)pyrimidin-5-yl)-1-benzothiophen-2-yl)carbonyl)-2,5-diazaspiro[3.4]octan-6-one] | 97 |  |
| O=C1CCC2(CN(C(=O)c3cc4ccc(Cl)cc4s3)C2)N1 [Example 147, 2-((6-chloro-1-benzothiophen-2-yl)carbonyl)-2,5-diazaspiro[3.4]octan-6-one] | 83 |  |
| O=C1NC2(CO1)CN(C(=O)c1sc3cc(Br)ccc3c1Cl)C2 [Example 307, 2-((6-bromo-3-chloro-1-benzothiophen-2-yl)carbonyl)-7-oxa-2,5-diazaspiro[3.4]octan-6-one] | 100 |  |
| O=C1NC2(CO1)CN(C(=O)c1sc3cc(F)cc(OC(F)(F)F)c3c1Cl)C2 [Example 314, 2-((3-chloro-6-fluoro-4-(trifluoromethoxy)-1-benzothiophen-2-yl)caarbonyl)-7-oxa-2,5-diazaspiro[3.4]octan-6-one] | 101 |  |
| O=C1CCC2(CN(C(=O)c3sc4cc(-c5cccc(F)c5Cl)ccc4c3Cl)C2)N1 [Example 220, 2-((3-chloro-6-(2-chloro-3-fluorophenyl)-1-benzothiophen-2-yl)carbonyl)-2,5-diazaspiro[3.4]octan-6-one] | 100 |  |
| O=C1CCC2(CCN(C(=O)N3CC(COc4ccc5c(c4)CCCC5)C3)C2)N1 (stereo not drawn) [Example 320, 7-((3-((5,6,7,8-tetrahydronaphthalen-2-yloxy)methyl)azetidin-1-yl)carbonyl)-1,7-diazaspiro[4.4]nonan-2-one] | 94 |  |
| Cc1ccc(-c2ccc(C(=O)N3CC4(CCC(=O)N4)C3)cc2)c(C)c1 [Example 88, 2-((2′,4′-dimethylbiphenyl-4-yl)carbonyl)-2,5-diazaspiro[3.4]octan-6-one] | 98 |  |
| CC1(C2CCN(C(=O)N3CC4(CCC(=O)N4)C3)CC2)Cc2ccccc2O1 (stereo not drawn) [Example 2, 2-((4-(2-methyl-2,3-dihydro-1-benzofuran-2-yl)piperidin-1-yl)carbonyl)-2,5-diazaspiro[3.4]octan-6-one] | 100 |  |
| O=C1CCC2(CN(C(=O)c3sc4cc(-c5cc(F)ccc5Cl)ccc4c3Cl)C2)N1 [Example 223, 2-((3-chloro-6-(2-chloro-5-fluorophenyl)-1-benzothiophen-2-yl)carbonyl)-2,5-diaspiro[3.4]octan-6-one] | 100 |  |
| O=C1NC2(CO1)CN(C(=O)c1sc3cccc(Cl)c3c1Cl)C2 [Example 289, 2-((3,4-dichloro-1-benzothiophen-2-yl)carbonyl)-7-oxa-2,5-diazaspiro[3.4]octan-6-one] | 101 |  |
| O=C1NC2(CO1)CN(C(=O)c1sc3c(C(F)(F)F)cccc3c1C(F)F)C2 [Example 277, 2-((3-(difluoromethyl)-7-(trifluoromethyl)-1-benzothiophen-2-yl)carbonyl)-7-oxa-2,5-diazaspiro[3.4]octan-6-one] | 101 |  |
| COc1ccc(-c2ccc3c(Cl)c(C(=O)N4CC5(CCC(=O)N5)C4)sc3c2)cc1 [Example 193, 2-((3-chloro-6-(4-methoxyphenyl)-1-benzothiophen-2-yl)carbonyl)-2,5-diazaspiro[3.4]octan-6-one] | 100 |  |
| O=C1CCC2(CN(C(=O)c3sc4cc(-c5ccccc5OC(F)(F)F)ccc4c3Cl)C2)N1 [Example 199, 2-((3-chloro-6-(2-(trifluoromethoxy)phenyl)-1-benzothiophen-2-yl)carbonyl)-2,5-diazaspiro[3.4]octan-6-one] | 100 |  |
| O=C1NC2(CO1)CN(C(=O)c1sc3c(OC(F)(F)F)ccc(F)c3c1Cl)C2 [Example 267, 2-((3-chloro-4-fluoro-7-(trifluoromethoxy)-1-benzothiophen-2-yl)carbonyl)-7-oxa-2,5-diazaspiro[3.4]octan-6-one] | 101 |  |

| Structure (SMILES) | inhibition at 10 µM [%] | % inhibition (10 μM) (10 µM) [%] |
| --- | --- | --- |
| O=C1CCC2(CN(C(=O)c3ccc(-c4ccc(C(F)(F)F)c(F)c4)cc3)C2)N1 [Example 45, 2-((3′-fluoro-4′-(trifluoromethyl)biphenyl-4-yl)carbonyl)-2,5-diazaspiro[3.4]octan-6-one] | 97 |  |
| O=C1CCC2(CN(C(=O)c3ccc(-c4ccc(OC(F)(F)F)cc4)cc3)C2)N1 [Example 58, 2-((4′-(trifluoromethoxy)biphenyl-4-yl)carbonyl)-2,5-diazaspiro[3.4]octan-6-one] | 96 |  |
| Cc1c(C(=O)N2CC3(CCC(=O)N3)C2)sc2ccccc12 [Example 141, 2-((3-methyl-1-benzothiophen-2-yl)carbonyl)-2,5-diazaspiro[3.4]octan-6-one] | 92 |  |
| Cc1c(F)cccc1-c1ccc2c(Cl)c(C(=O)N3CC4(CCC(=O)N4)C3)sc2c1 [Example 204, 2-((3-chloro-6-(3-fluoro-2-methylphenyl)-1-benzothiophen-2-yl)carbonyl)-2,5-diazaspiro[3.4]octan-6-one] | 100 |  |
| Cc1ccc(Cl)c(-c2ccc(C(=O)N3CC4(CCC(=O)N4)C3)cc2)c1 [Example 81, 2-((2′-chloro-5′-methylbiphenyl-4-yl)carbonyl)-2,5-diazaspiro[3.4]octan-6-one] | 94 |  |
| O=C1CCC2(CN(C(=O)c3sc(-c4cccc(C5(C(F)(F)F)CC5)c4)cc3Cl)C2)N1 [Example 246, 2-((3-chloro-5-(3-(1-(trifluoromethyl)cyclopropyl)phenyl)-2-thienyl)carbonyl)-2,5-diazaspiro[3.4]octan-6-one] | 100 |  |
| O=C1NC2(CO1)CN(C(=O)c1sc3cc(OC(F)(F)F)c(F)cc3c1Cl)C2 [Example 280, 2-((3-chloro-5-fluoro-6-(trifluoromethoxy)-1-benzothiophen-2-yl)carbonyl)-7-oxa-2,5-diazaspiro[3.4]octan-6-one] | 101 |  |
| COc1cc(F)c2c(Cl)c(C(=O)N3CC4(COC(=O)N4)C3)sc2c1 [Example 284, 2-((3-chloro-4-fluoro-6-methoxy-1-benzothiophen-2-yl)carbonyl)-7-oxa-2,5-diazaspiro[3.4]octan-6-one] | 101 |  |
| O=C1NC2(CCN(C(=O)c3sc4cc(C(F)(F)F)cc(F)c4c3Cl)C2)CO1 (stereo not drawn) [Example 334, 7-((3-chloro-4-fluoro-6-(trifluoromethyl)-1-benzothiophen-2-yl)carbonyl)-3-oxa-1,7-diazaspiro[4.4]nonan-2-one] | 100 |  |
| COc1cc(F)c2c(Cl)c(C(=O)N3CC4(COC(=O)N4)C3)sc2c1Cl [Example 294, 2-((3,7-dichloro-4-fluoro-6-methoxy-1-benzothiophen-2-yl)carbonyl)-7-oxa-2,5-diazaspiro[3.4]octan-6-one] | 100 |  |
| O=C1CCC2(CN(C(=O)c3ccc(-c4ccc5c(c4)CCC5)cc3)C2)N1 [Example 57, 2-(4-(2,3-dihydro-1H-inden-5-yl)benzoyl)-2,5-diazaspiro[3.4]octan-6-one] | 99 |  |
| Cc1c(OC(F)(F)F)ccc2c(Cl)c(C(=O)N3CCC4(COC(=O)N4)C3)sc12 (stereo not drawn) [Example 330, 7-((3-chloro-7-methyl-6-(trifluoromethoxy)-1-benzothiophen-2-yl)carbonyl)-3-oxa-1,7-diazaspiro[4.4]nonan-2-one] |  | 96 |
| O=C1COCC2(CCN(C(=O)c3sc4cc(OC(F)(F)F)ccc4c3Cl)C2)N1 (stereo not drawn) [Example 273, 2-((3-chloro-6-(trifluoromethoxy)-1-benzothiophen-2-yl)carbonyl)-9-oxa-2,6-diazaspiro[4.5]decan-7-one] | 100 |  |
| O=C1NC2(CO1)CN(C(=O)c1sc3cc(C4=CCC(F)(F)CC4)cc(F)c3c1C1=CCC(F)(F)CC1)C2 [Example 310, 2-((3,6-bis(4,4-difluorocyclohex-1-en-1-yl)-4-fluoro-1-benzothiophen-2-yl)carbonyl)-7-oxa-2,5-diazaspiro[3.4]octan-6-one] | 100 |  |
| Cc1cc(F)c(F)c2sc(C(=O)N3CCC4(COC(=O)N4)C3)c(Cl)c12 (stereo not drawn) [Example 328, 7-((3-chloro-6,7-difluoro-4-methyl-1-benzothiophen-2-yl)carbonyl)-3-oxa-1,7-diazaspiro[4.4]nonan-2-one] | 99 |  |
| CC1(c2cccc(-c3cc(Cl)c(C(=O)N4CC5(COC(=O)N5)C4)s3)c2)CC1 [Example 281, 2-((3-chloro-5-(3-(1-methylcyclopropyl)phenyl)-2-thienyl)carbonyl)-7-oxa-2,5-diazaspiro[3.4]octan-6-one] | 100 |  |
